Test results reported in US20200392150A1, “Diaryl-B-Lactam Compound and Preparation Method and Pharmaceutical Use Thereof” (Fudan University, priority 2016, published 2020).
pIC50: −log10 of the molar value. Entries after “also recorded” stand apart in the source; their conditions may differ. Where two headings read alike, the source gives them in different places.

Columns and labels:
[1] = test system: human umbilical veinendothelial cells (HUVECs); test: Capillary-like tube formation assay; type: cell-based; details: HUVECs on matrigel, 12 h
Experimental: […] matrigel (Corning) per well was added to 96-well plate and pre-incubated at 37° C. for 1 h for gelation. 3*10^4 human umbilical veinendothelial cells (HUVECs) in […] medium per well containing indicated concentrations of 69, 70 and 97, CA-4 as positive control, or diluent (0.2% DMSO) as negative control, respectively, were seeded to 96-well plates on the matrigel layer, followed by continual incubation at 37° C. for 12 h to allow capillary-like tube formation. Images were captured with a CCD Sensicam camera mounted on an Olympus inverted microscope. Representative data from three independent experiments were shown.

A2780 cells xenograft = test: Xenografts tumor growth assay in nude mice; type: in vivo, Balb/c nude mice; details: i.p. once every 2 days, 69 7.5 mg/kg, 70 12.5 mg/kg, 97 4 or 8 mg/kg
Experimental: 6 weeks old female Balb/c nude mice were purchased from Shanghai Slac Laboratory Animal Co. Ltd. (Shanghai, China). 2*10^6 A2780 cells suspended in 0.2 mL PBS per mouse was injected subcutaneously into the nude mice. […] Administration of agents or vehicle, or agents and measurement of tumor volumes with a digital caliper was done once every 2 days. Tumor volumes were calculated as volume=shortest diameter (W)^2*longest diameter (L)*0.52. When the average tumor volumes of vehicle treated group reached 2000 mm^3 in diameter, the mice were sacrificed and the tumors were isolated and weighed. Visceral organs of the mice as well as solid tumors were further analyzed by H&E staining.

tubulin in Hela cells = test: Immunoblotting analysis of polymerized/depolymerized tubulin; type: cell-based, human; details: 6 h
Experimental: After being treated with diluent (0.2% DMSO), tested compound, CA-4 or PTX for 6 h, Hela cells were lysed with microtubulestabilizing buffer, containing 100 mM PIPES, pH 6.8, 1 mM MgCl2, 2 mM EGTA, 0.5% NP-40, 2 M glycerol, 5 μM PTX and protease inhibitors cocktail (Roche), and the lysate was centrifuged at 15,000 rpm for 15 min. Supernatant containing depolymerized tubulin was carefully collected, whereas pellet (polymerized tubulin) was further dissolved in SDS-lysis buffer (Beyotime, China). Equal amounts of supernatant and dissolved pellet were subjected to immunoblotting analysis as described above using atubulin antibody (Proteintech).

[2] = test system: VEGF induced angiogenesis; test: Matrigel plug assay; type: in vivo, Balb/C nude mice; details: nude mice, s.c. matrigel with 100 ng/mL VEGF-A165, 2 weeks
Experimental: 6 weeks old female Balb/C nude mice were purchased from Shanghai Slac Laboratory Animal Co. Ltd. (Shanghai, China). Matrigel containing 100 ng/mL human recombinant VEGF-A165 (Peprotech, Rocky Hill, N.J.) were mixed with indicated concentrations of 69, 70 and 97, or diluent (0.2% DMSO) as negative control at 4° C. Then, 0.5 mL of the matrigel mixture per mouse was injected subcutaneously into nude mice (n=4) in the dorsal region to generate matrigel plugs. 2 weeks later, the mice were sacrificed and matrigel plugs were recovered. Representative data from three independent experiments were shown.

MDA-MB-231 cells = test: Colony formation assay; type: cell-based, human; details: 48 h treatment, 7-10 days growth
Experimental: 1000 MDA-MB-231 cells per well were seeded into 6-well plate at a single cell density and were cultured at 37° C. for 48 h. After being treated with indicated concentrations of 69, 70 and 97, CA-4 as positive control, or diluent (0.2% DMSO) as negative control for 48 h, the agents containing medium was replaced by fresh medium to allow cell growth for additional 7-10 days. Then the cells were fixed with methanol and stained with gentian violet for 30 min.
The number of colonies which consisted of more than 50 cells were counted. The results were indicated as mean values from three independent determinations.

Pig brain tubulin = molecular target: T1, Pig brain tubulin (Sus scrofa, UniProt P02550+P02554); test: In vitro tubulin polymerization assay; type: biochemical
T1 construct: purchased; host or cells: pig brain
T1 sequence (P02554 whole entry): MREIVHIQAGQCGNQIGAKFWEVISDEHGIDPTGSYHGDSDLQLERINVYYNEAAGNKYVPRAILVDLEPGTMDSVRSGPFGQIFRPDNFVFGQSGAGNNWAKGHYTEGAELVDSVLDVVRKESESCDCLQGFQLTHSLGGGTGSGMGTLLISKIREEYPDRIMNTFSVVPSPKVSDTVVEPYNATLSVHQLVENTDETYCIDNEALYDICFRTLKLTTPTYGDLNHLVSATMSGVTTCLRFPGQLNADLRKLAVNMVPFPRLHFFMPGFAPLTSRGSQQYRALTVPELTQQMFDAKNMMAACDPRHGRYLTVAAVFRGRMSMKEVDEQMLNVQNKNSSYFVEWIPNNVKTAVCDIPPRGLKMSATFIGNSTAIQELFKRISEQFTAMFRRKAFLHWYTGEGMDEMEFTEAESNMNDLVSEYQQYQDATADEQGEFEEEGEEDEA
T1 sequence (P02550 whole entry): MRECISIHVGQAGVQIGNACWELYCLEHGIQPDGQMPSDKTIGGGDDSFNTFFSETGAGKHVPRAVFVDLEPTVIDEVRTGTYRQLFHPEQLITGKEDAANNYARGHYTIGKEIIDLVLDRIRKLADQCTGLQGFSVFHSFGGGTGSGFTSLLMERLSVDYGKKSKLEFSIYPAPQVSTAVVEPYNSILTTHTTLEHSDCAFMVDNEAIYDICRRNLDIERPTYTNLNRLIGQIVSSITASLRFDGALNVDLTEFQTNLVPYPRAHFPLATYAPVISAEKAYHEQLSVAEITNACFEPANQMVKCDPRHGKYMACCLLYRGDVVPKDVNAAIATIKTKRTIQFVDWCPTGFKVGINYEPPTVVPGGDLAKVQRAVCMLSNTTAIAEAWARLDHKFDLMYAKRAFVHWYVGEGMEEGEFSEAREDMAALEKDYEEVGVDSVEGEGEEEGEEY
Experimental: In vitro tubulin polymerization assay Pig brain tubulin was obtained commercially and stored in aliquots at −70° C. […] The absorbance of wavelength at 340 nm was detected every 1 min for 20 min by Spectra Max 190 spectrophotometer (Molecular Device) at 37° C. The results were indicated as mean values from three independent determinations.

cells = test: Cell apoptosis analysis (Annexin V/PI flow cytometry); type: cell-based; details: 48 h
Experimental: Cell apoptosis was detected using FITC Annexin V Apoptosis Detection Kit (BD Biosciences) according to manufacturer's instructions. Briefly, cells were incubated with indicated concentrations of 69, 70 and 97, CA-4 as positive control or diluent (0.2% DMSO) as negative control for 48 h. Then the cells were harvested, washed twice with PBS, and re-suspended in binding buffer. After being stained with Annexin-V and PI for 15 min in the dark place, cells were subjected to flow cytometry (Cytomics FC 500 MPL, Beckman Coulter) analysis. The results were indicated as mean values from three independent determinations.

[3] = test system: p-histone H3, cyclin B1 and BuBR1 in HeLa cells; test: Cell cycle associated proteins assay; type: cell-based, human; details: 24 h, western blot and qPCR
Experimental: A. HeLa cells were treated with 69, 70, 97 or DMSO for 24 h. After being harvested, the cells were lysed, and the concentrations of total protein were determined by BCA protein assay kit (Beyotime, China). […] The membrane was blocked with 5% BSA in TBST for 1.5 h, then incubated overnight with specific primary antibodies (Proteintech) at 4° C. After being washed three times by TBST, the membrane was incubated with specific secondary antibodies (Abnova, Taipei, China) at room temperature for 2 h. Finally, chemiluminescent reagents (Millipore) were employed to detect the protein bands.
B. Quantitative PCR assay: HeLa cells were treated with 69, 70 or 97. The expression level of mRNA of target proteins was tested with qPCR kit (Takara).

tubulin in SKOV-3 cells = test: Immunofluorescent analysis of tubulin morphology; type: cell-based, human; details: 24 h
Experimental: After treatment with diluent (0.2% DMSO) or tested compounds at indicated concentrations for 24 h, SKOV-3 cells were fixed with methanol, permeabilized with 0.1% Triton X-100 in PBS and blocked by goat serum. Then the cells were incubated with a-tubulin antibody at 4° C. overnight, followed by incubation with Alexa 488 labeled secondary antibody (Jackson ImmunoResearch) at RT for 1 h. After being stained with DAPI, cells were examined and photographed with a Leica SP5 co-focal fluorescence microscope.

| Compound | capillary-like tube formation [1] | H&E staining of liver, kidney and spleen (A2780 cells xenograft) | H&E staining of tumor sections (A2780 cells xenograft) | mouse body weight (A2780 cells xenograft) | tumor growth in vivo (A2780 cells xenograft) | polymerized tubulin (immunoblotting) (tubulin in Hela cells) | VEGF induced angiogenesis in matrigel plugs [2] | colony formation (MDA-MB-231 cells) | pIC50 (Pig brain tubulin) | cellular apoptosis (cells) | expression of p-histone H3, cyclin B1 and BuBR1 [3] | tubulin assembly (immunofluorescence) (tubulin in SKOV-3 cells) | pIC50 (Pig brain tubulin; pig brain tubulin, absorbance 340 nm, 20 min, 37° C., read-out: IC50 disruption of tubulin assembly) |
| --- | --- | --- | --- | --- | --- | --- | --- | --- | --- | --- | --- | --- | --- |
| COc1ccc([C@H]2[C@H](CO)C(=O)N2c2cc(OC)c(OC)c(OC)c2)cc1O [Compound 69, (3R,4R)-4-(3-hydroxy-4-methoxyphenyl)-3-(hydroxymethyl)-1-(3,4,5-trimethoxyphenyl)azetidin-2-one] | significantly inhibit the formation of capillary-like structures; also recorded: almost completely disrupted the capillary-like tube formation | no abnormal areas are observed in tissue staining of liver, kidney and spleen; also recorded: no detectable abnormalities were observed in liver, kidney and spleen | cause tumor tissue to produce necrotic areas; also recorded: extensive areas of necrosis or cell death | no significant influence on mouse body weight; also recorded: no significant weight loss observed | significantly inhibit tumor growth in vivo; also recorded: anti-tumor activities in vivo | significantly inhibit tubulin aggregation; also recorded: dramatically reduction of polymerized tubulin | significantly inhibit VEGF-mediated neovascularization; also recorded: suppressed VEGF induced angiogenesis | significantly inhibit the formation of colonies; also recorded: dose-dependently reduced | 5.46 | significantly promote apoptosis; also recorded: significantly induce cellular apoptosis | significantly promote the expression of phosphorylated histone H3, cyclinB1, and mitotic checkpoint protein BuBR1; also recorded: significantly induce the expression of p-histone H3, cyclin B1 and BuBR1 | significantly inhibit tubulin aggregation; also recorded: strongly inhibit tubulin assembly |  |
| COc1ccc([C@H]2[C@@H](C)C(=O)N2c2cc(OC)c(OC)c(OC)c2)cc1O [Compound 70, (3R,4R)-4-(3-hydroxy-4-methoxyphenyl)-3-methyl-1-(3,4,5-trimethoxyphenyl)azetidin-2-one] | significantly inhibit the formation of capillary-like structures; also recorded: almost completely disrupted the capillary-like tube formation | no abnormal areas are observed in tissue staining of liver, kidney and spleen; also recorded: no detectable abnormalities were observed in liver, kidney and spleen | cause tumor tissue to produce necrotic areas; also recorded: extensive areas of necrosis or cell death | no significant influence on mouse body weight; also recorded: no significant weight loss observed | significantly inhibit tumor growth in vivo; also recorded: anti-tumor activities in vivo | significantly inhibit tubulin aggregation; also recorded: dramatically reduction of polymerized tubulin | significantly inhibit VEGF-mediated neovascularization; also recorded: suppressed VEGF induced angiogenesis | significantly inhibit the formation of colonies; also recorded: dose-dependently reduced | 5.77 | significantly promote apoptosis; also recorded: significantly induce cellular apoptosis | significantly promote the expression of phosphorylated histone H3, cyclinB1, and mitotic checkpoint protein BuBR1; also recorded: significantly induce the expression of p-histone H3, cyclin B1 and BuBR1 | significantly inhibit tubulin aggregation; also recorded: strongly inhibit tubulin assembly |  |
| COc1ccc([C@H]2[C@H](C)C(=O)N2c2cc(OC)c(OC)c(OC)c2)cc1O [Compound 97, (3S,4R)-4-(3-hydroxy-4-methoxyphenyl)-3-methyl-1-(3,4,5-trimethoxyphenyl)azetidin-2-one] | significantly inhibit the formation of capillary-like structures; also recorded: almost completely disrupted the capillary-like tube formation | no abnormal areas are observed in tissue staining of liver, kidney and spleen; also recorded: no detectable abnormalities were observed in liver, kidney and spleen | cause tumor tissue to produce necrotic areas; also recorded: extensive areas of necrosis or cell death | no significant influence on mouse body weight; also recorded: no significant weight loss observed | significantly inhibit tumor growth in vivo; also recorded: anti-tumor activities in vivo | significantly inhibit tubulin aggregation; also recorded: dramatically reduction of polymerized tubulin | significantly inhibit VEGF-mediated neovascularization; also recorded: suppressed VEGF induced angiogenesis | significantly inhibit the formation of colonies; also recorded: dose-dependently reduced |  | significantly promote apoptosis; also recorded: significantly induce cellular apoptosis | significantly promote the expression of phosphorylated histone H3, cyclinB1, and mitotic checkpoint protein BuBR1; also recorded: significantly induce the expression of p-histone H3, cyclin B1 and BuBR1 | significantly inhibit tubulin aggregation; also recorded: strongly inhibit tubulin assembly | 5.80 |
